Results as given in patent US20120251551A1, “Substituted (Heteroarylmethyl)thiohydantoins” (BAYER PHARMA AKTIENGESELLSCHAFT, priority 2009, published 2012).
Substitutions are numbered along the chain they refer to. Read-outs that look alike come from different tables or passages of the source.

Tests used:
[1] = target: T1, human androgen receptor E709Y mutant (Homo sapiens, UniProt P10275, E710Y); assay: Cell-based transactivation assay for human androgen receptor mutant E709Y
T1 construct: expressed in transfected cells; host or cells: PC-3 cells, transient transfection with a pSG5-derived plasmid
T1 sequence (P10275 1-920 E710Y): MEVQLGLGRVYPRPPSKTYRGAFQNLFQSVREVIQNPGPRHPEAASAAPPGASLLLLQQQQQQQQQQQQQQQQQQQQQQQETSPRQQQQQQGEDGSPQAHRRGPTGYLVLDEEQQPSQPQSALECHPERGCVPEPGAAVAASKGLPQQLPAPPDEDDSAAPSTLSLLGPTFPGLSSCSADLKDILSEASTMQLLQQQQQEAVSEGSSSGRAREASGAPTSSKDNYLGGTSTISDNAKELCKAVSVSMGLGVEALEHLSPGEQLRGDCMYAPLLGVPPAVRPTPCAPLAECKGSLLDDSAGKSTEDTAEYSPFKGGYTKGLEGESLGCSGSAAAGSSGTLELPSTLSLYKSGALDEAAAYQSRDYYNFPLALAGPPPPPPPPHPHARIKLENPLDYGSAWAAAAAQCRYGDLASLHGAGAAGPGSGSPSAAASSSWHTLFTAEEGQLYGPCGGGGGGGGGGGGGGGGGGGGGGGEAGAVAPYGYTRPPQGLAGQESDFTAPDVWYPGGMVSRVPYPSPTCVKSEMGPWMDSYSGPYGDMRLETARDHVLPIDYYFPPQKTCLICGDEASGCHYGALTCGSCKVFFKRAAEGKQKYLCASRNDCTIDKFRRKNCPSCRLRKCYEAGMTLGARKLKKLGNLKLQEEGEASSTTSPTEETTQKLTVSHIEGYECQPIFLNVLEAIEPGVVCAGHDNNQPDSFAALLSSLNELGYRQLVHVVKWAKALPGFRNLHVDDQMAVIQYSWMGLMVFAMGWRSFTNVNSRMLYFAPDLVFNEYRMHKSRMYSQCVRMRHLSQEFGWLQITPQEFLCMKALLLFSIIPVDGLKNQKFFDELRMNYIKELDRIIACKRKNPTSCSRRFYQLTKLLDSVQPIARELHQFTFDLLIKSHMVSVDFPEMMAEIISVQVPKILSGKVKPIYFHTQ
Procedure: Cell-Based Transactivation Assay for Human Androgen Receptor Mutant E709Y
PC-3 cells (Kaighn et al., Invest. Urol. 17:16-23, 1979) were grown in 5% charcoal-stripped medium and seeded at a concentration of 10000 cells per well in a 96-well plate. They were transiently transfected with a pSG5-derived plasmid (#216201 from Stratagene, La Jolla, Calif., USA) coding for the human androgen receptor E709Y mutant (Georget et al., Molecular Endocrinology, 20(4): 724-734, 2006) and an MMTV-Luciferase reporter plasmid based on pGL4.14 14 (#E6691, Promega Corporation, Madison, Wis., USA). The compound to be tested was added at a concentration range varying from 1×10^−9 to 1×10^−6 M together with 1×10^−10 R1881. After 24 h incubation at 37° C. in a 5% CO2 atmosphere, 100 μl of Steady Glo Lysis and Detection reagent (Steady Glo Luciferase assay system E2550 from Promega Corporation. Madison, Wis., USA) were added. Antagonistic activity was determined by measuring Luciferase activity in a Victor 3 Luminometer (PerkinElmer, Waltham, Mass., USA) using the Steady Glo Luciferase Assay (E2550, Promega). IC50 values were calculated for anti-androgenic activity.

[2] = target: T2, human androgen receptor W741L mutant (Homo sapiens, UniProt P10275, W742L); assay: Cell-based transactivation assay for human androgen receptor mutant W741L
T2 construct: expressed in transfected cells; host or cells: PC-3 cells, transient transfection with a pSG5-derived plasmid
T2 sequence (P10275 1-920 W742L): T1 sequence (P10275 1-920 E710Y) with Y710E, W742L

VCaP cells = assay: Proliferation assay with VCaP cells; format: cell-based; details: Homo sapiens, 168 h, R1881 (1×10^−10) stimulated growth
Summary of the method: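 Cells in DMEM with 10% charcoal-stripped serum treated one day after seeding with R1881 (1×10^−10) plus compound. Cell number read by Alamar Blue fluorescence (ex 530/em 590 nm) at day 0 and day 7; day-7 R1881-only signal defines stimulated growth, day-7 signal without R1881 defines basal level.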

LNCaP cells = assay: Proliferation assay with LNCaP cells; format: cell-based; details: Homo sapiens, 168 h, R1881 (1×10^−10) stimulated growth, day 7, read-out: inhibition IC50 (LNCaP)
Procedure: Proliferation Assay with LNCaP Cells
LNCaP cells (Horoszewicz et al., in “Models for Prostate Cancer” (ed. G. P. Murphy), Alan R. Liss, New York 1981, p. 115-132; Horoszewicz et al., Cancer Res. 43:1809-1818, 1983) were seeded at 2000 cells/well in 96-well plates in RPMI (F1235, Biochrom AG, Berlin, Germany) without phenol red supplemented with 5% charcoal-stripped serum. After 3 days, the cells were treated with R1881) (1×10^−10) and compound (day 0). Cell number was determined by Alamar Blue (DAL1100, Invitrogen, Life Technologies, Lohne, Germany) staining (2.5 h) at day 0 and day 7. Fluorescence was determined in Victor3 (Excitation 530 nm; emission 590 nm). Stimulated growth was defined as the signal measured at day 7 for cells treated only with R1881. Basal level was defined as the signal measured at day 7 for cells grown without R1881.

[3] = day 7, read-out: Antiproliferative activity VCaP IC50
[4] = day 7, read-out: inhibition IC50 (VCaP)

| Compound | IC50 [1] | IC50 [2] | IC50 (VCaP cells; [3]) | IC50 (LNCaP cells) | IC50 (VCaP cells; [4]) |
| --- | --- | --- | --- | --- | --- |
| CN1C(=S)N(c2ccc(C#N)c(C(F)(F)F)c2)C(=O)C1(C)C [2-(Trifluoromethyl)-4-(3,4,4-trimethyl-5-oxo-2-thioxoimidazolidin-1-yl)benzonitrile, reference compound] | 117 nM | 159 nM | > 1000 nM | – | – |
| CC1(C)C(=O)N(c2ccc(C#N)c(C(F)(F)F)c2)C(=S)N1CCCCO [4-[3-(4-Hydroxybutyl)-4,4-dimethyl-5-oxo-2-thioxoimidazolidin-1-yl]-2-(trifluoromethyl)benzonitrile, reference compound] | > 1000 nM | 89.7 nM | > 1000 nM | – | – |
| CC1(C)C(=O)N(c2ccc(C#N)c(C(F)(F)F)c2)C(=S)N1Cc1ccc(F)cc1 [Comparative data^4] | > 1000 nM | > 1000 nM | > 1000 nM | – | – |
| CC1(C)C(=O)N(c2ccc(C#N)c(C(F)(F)F)c2)C(=S)N1Cc1ccccc1 [Comparative data^4] | 587 nM | 166 nM | > 1000 nM | – | – |
| CC1(C)C(=O)N(c2ccc(C#N)c(C(F)(F)F)c2)C(=S)N1Cc1ccc(-n2ccnc2)nc1 [Example 1, 4-(3-{[6-(1H-Imidazol-1-yl)pyridin-3-yl]methyl}-4,4-dimethyl-5-oxo-2-thioxoimidazolidin-1-yl)-2-(trifluoromethyl)benzonitrile] | 7.21 nM | 173 nM | 291 nM | 59 nM | – |
| CC1(C)C(=O)N(c2ccc(C#N)c(C(F)(F)F)c2)C(=S)N1Cc1ccc(C(F)(F)F)nc1 [Example 2, 4-(4,4-Dimethyl-5-oxo-2-thioxo-3-{[6-(trifluoromethyl)pyridin-3-yl]methyl}imidazolidin-1-yl)-2-(trifluoromethyl)benzonitrile] | 14.2 nM | 86.7 nM | 247 nM | 314 nM | – |
| CC1(C)C(=O)N(c2ccc(C#N)c(C(F)(F)F)c2)C(=S)N1Cc1ccc(N2CCOCC2)nc1 [Example 4, 4-(4,4-Dimethyl-3-{[6-(morpholin-4-yl)pyridin-3-yl]methyl}-5-oxo-2-thioxoimidazolidin-1-yl)-2-(trifluoromethyl)benzonitrile] | 77.2 nM | 89.2 nM | 124 nM | 117 nM | 124 nM |
| CC1(C)C(=O)N(c2ccc(C#N)c(C(F)(F)F)c2)C(=S)N1Cc1ccc(N2CCS(=N)(=O)CC2)nc1 [Example 9, 4-(3-{[6-(1-Imino-1-oxido-1λ^6-thiomorpholin-4-yl)pyridin-3-yl]methyl}-4,4-dimethyl-5-oxo-2-thioxoimidazolidin-1-yl)-2-(trifluoromethyl)benzonitrile] | 5.65 nM | 275 nM | – | 303 nM | – |
| CC(C)(O)COc1ccc(CN2C(=S)N(c3ccc(C#N)c(C(F)(F)F)c3)C(=O)C2(C)C)cn1 [Example 10, 4-(3-{[6-(2-Hydroxy-2-methylpropoxy)pyridin-3-yl]methyl}-4,4-dimethyl-5-oxo-2-thioxoimidazolidin-1-yl)-2-(trifluoromethyl)benzonitrile] | 26.3 nM | 285 nM | 229 nM | 283 nM | 229 nM |
| Cc1nc(C(F)(F)F)ccc1CN1C(=S)N(c2ccc(C#N)c(C(F)(F)F)c2)C(=O)C1(C)C [Example 13, 4-(4,4-Dimethyl-3-{[2-methyl-6-(trifluoromethyl)pyridin-3-yl]methyl}-5-oxo-2-thioxoimidazolidin-1-yl)-2-(trifluoromethyl)benzonitrile] | 24.7 nM | 93.7 nM | 300 nM | 124 nM | – |
